Experimental data as given in US12162857B2, “Antiviral compounds” (priority 2022, dated 2024).
pEC50: −log10 of the molar value.

System: HMPV A2 TN/94-49
Assay: HMPV antiviral assay: LLC-MK2 cells, ATP-Lite readout
Type: cell-based
Conditions: LLC-MK2, 168 h, MOI 0.005, 7 days incubation
Method: In vitro HMPV antiviral activity was evaluated using the clinical isolate A2 strain TN 94-49 and LLC-MK2 cells (ATCC #CCL-7), an immortalized kidney epithelial cell line from Macaca mulatta. Compounds were resuspended in dimethyl sulfoxide (DMSO) at 10 mM, serially diluted and added to a 384-well source plate. Subsequently, the compounds were diluted and transferred onto 384-well assay plates using the Echo-650 automated liquid handling system (Beckman Coulter, Indiana). The test compounds were assessed in duplicate at a top concentration of 2 μM followed by 2.5-fold serial dilutions to give a total of 10 concentration points. DMSO control wells were also included on the assay plates and were either infected or not, acting as positive and negative controls. A2 TN 94-49 virus infections were performed in-suspension with LLC-MK2 cells. The cells were washed twice with PBS and removed from the cell-culture flask with 0.25% trypsin-EDTA (Thermo Fisher Scientific, MA). The trypsin-EDTA was inactivated by resuspending in 2% fetal bovine serum (FBS) and OptiMEM (ThermoFisher Scientific, MA) containing 1% penicillin-streptomycin. Cells were pelleted by centrifuging for 5 minutes at 800 rpm, the supernatant was removed, and cells were re-suspended and washed in PBS plus 100 μg/mL CaCl2). This step was performed twice. Cells were then re-suspended in serum-free (SF)-OptiMEM containing 4 μg/mL TPCK-Trypsin (Sigma Aldrich, MO), 1% penicillin-streptomycin (ThermoFisher Scientific, MA) and 100 μg/mL CaCl2). Cells were counted and seeded at a density of 5,000 cells/well, 12.5 μL/well. Virus infections were done at a multiplicity of infection (MOI) of 0.005 with 12.5 μL added per well. Virus infections were performed in infection media which contained SF-OptiMEM, 100 μg/mL CaCl2) and 1% penicillin-streptomycin. HMPV viral stocks are suspended in infection media+5% glycerol, thus an equal volume of infection media+5% glycerol was added to uninfected wells to equalize the final % glycerol across all wells of the assay plate. The final concentration of TPCK-trypsin was 2 μg/mL. The assay plates were incubated at 37° C., 5% CO2 for 7 days. After 7 days incubation, 12.5 μL of ATP-Lite (PerkinElmer, MA) was added to each well and the raw luminescence values were determined using the Envision 2104 (Perkin Elmer, MA). The average of the raw luminescence values for the cells and virus only positive control wells was subtracted from all conditions tested and the percent cell health was determined by dividing these values by the average of the cells only negative control wells. EC50 values were then calculated by non-linear regression using a four-parameter curve logistic equation. The curve fit model employed was XLFit Dose Response One Site Model 200: y=(A+(B/(1+((x/C)^D)))), where A is the minimum y value, B is the maximum y value, C is the log EC50 value, and D is the slope factor. […] EC50 ranges are as follows: A<1 μM; B>1 μM.

SMILES	pEC50
COc1cc(C(=O)NC[C@@](O)(c2ccccc2)c2cc(C(C)(C)C(N)=O)c(F)c(-c3cc(Cl)c(F)cc3F)n2)cc2sc(C)nc12 [Example 163]	< 6.00
CC(C)(O)c1cc([C@@](O)(CNC(=O)c2cc(OC3CC3)c3nn(C4CC4)cc3c2)C2CC2)nc(-c2cc(Cl)c(F)cc2F)c1F [Example 55]	> 6.00
COc1cc(C(=O)NC[C@@](O)(c2ccccc2)c2nc(-c3cc(Cl)c(F)cc3F)c(F)c(C(C)(C)O)c2F)cc2cc(C3CC3)nn12 [Example 129]	> 6.00
CC(C)(O)c1cc([C@@](O)(CNC(=O)c2cc(Cl)c3nn(C4CC4)cc3c2)c2ccccc2)nc(-c2ccc3c(c2)OC(F)(F)O3)c1F [Example 77]	< 6.00
CC(C)(O)c1cc([C@@](O)(CNC(=O)c2cc(Cl)c3nn(C4CC4)cc3c2)c2cccc(F)c2)nc(-c2cc(F)c(F)cc2F)c1F [Example 97]	> 6.00
COc1cc(C(=O)NC[C@@](O)(c2ccccc2)c2cc(C(=O)NCC(C)(C)O)c(F)c(-c3cc(Cl)c(F)cc3F)n2)cc2cn(C3CC3)nc12 [Example 193]	< 6.00
COc1cc(C(=O)NC[C@@](O)(c2cccc(F)c2)c2cc(C(C)(C)O)c(F)c(-c3cc(F)c(F)cc3F)n2)cc2cn(C3CC3)nc12 [Example 96]	> 6.00
COc1cc(C(=O)NC[C@@](O)(c2cccc(F)c2)c2cc(C(C)(C)O)c(F)c(-c3cc(F)c(F)cc3F)n2)cc2cn(C(F)F)nc12 [Example 94]	> 6.00
COc1cc(C(=O)NC[C@@](O)(c2ccccc2)c2cc(C(C)(C)O)c(Cl)c(-c3ccc4c(c3Cl)OC(F)(F)O4)n2)cc2cn(C(F)F)nc12 [Example 138]	> 6.00
COc1cc(C(=O)NC[C@@](O)(c2cccc(F)c2)c2cc(C(C)(C)O)c(F)c(-c3ccc4c(c3Cl)OC(F)(F)O4)n2)cc2cn(C3CC3)nc12 [Example 109]	> 6.00
COc1cc(C(=O)NC[C@@](O)(c2ccccc2)c2cc(C(C)(C)O)c(F)c(-c3ccc4c(c3Cl)OC(F)(F)O4)n2)cc2cn(C(F)F)nc12 [Example 76]	> 6.00
COc1cc(C(=O)NC[C@](O)(c2cc(C3(O)COC3)c(F)c(-c3cc(Cl)c(F)cc3F)n2)C2CC2)cc2cn(C3(F)CC3)nc12 [Example 168]	< 6.00
COc1cc(C(=O)NC[C@@](O)(c2cccc(F)c2)c2cc(C(C)(C)O)c(F)c(-c3cc(Cl)c(F)cc3F)n2)cc2cn(C3CC3)nc12 [Example 90]	> 6.00
COc1cc(C(=O)NC[C@@](O)(c2cccc(F)c2)c2cc(C(C)(C)O)c(F)c(-c3ccc4c(c3Cl)OC(F)(F)O4)n2)cc2cc(C3CC3)nn12 [Example 112]	> 6.00
CC(C)(O)c1cc([C@@](O)(CNC(=O)c2cc(Cl)c3nn(C4CC4)cc3c2)c2ccccc2)nc(-c2ccc(F)c(Cl)c2Cl)c1F [Example 68]	> 6.00
COc1cc(C(=O)NC[C@](O)(c2ccc(F)c(-c3cc(Cl)c(F)cc3F)n2)C2CC2)cc2cn(C3CC3)nc12 [Example 171]	< 6.00
CCC(O)(CC)c1cc([C@@](O)(CNC(=O)c2cc(OC)c3nn(C(F)F)cc3c2)c2ccccc2)nc(-c2cc(Cl)c(F)cc2F)c1F [Example 117]	< 6.00
COc1cc(C(=O)NC[C@@](O)(c2cccc(F)c2)c2cc(C(C)(C)O)c(F)c(-c3cccc(Cl)c3Cl)n2)cc2cn(C(F)F)nc12 [Example 99]	> 6.00
COc1cc(C(=O)NC[C@](O)(c2cc(C3(O)COC3)c(F)c(-c3cc(Cl)c(F)cc3F)n2)C2CC2)cc2cn(C(F)F)nc12 [Example 169]	< 6.00
COc1cc(C(=O)NC[C@@](O)(c2ccccc2)c2cc(C(C)(C)O)c(F)c(-c3ccc(F)c(Cl)c3Cl)n2)cc2cn(C(F)F)nc12 [Example 70]	> 6.00
COc1cc(C(=O)NC[C@](O)(c2cc(C(C)(C)O)c(F)c(-c3cc(Cl)c(F)cc3F)n2)C2CC2)cc2cn(C3(F)CC3)nc12 [Example 53]	> 6.00
COc1cc(C(=O)NC[C@@](O)(c2ccccc2)c2cc(C(C)(C)O)c(F)c(-c3ccc(F)c(Cl)c3F)n2)cc2cn(C3(F)CC3)nc12 [Example 124]	> 6.00
COc1cc(C(=O)NC[C@@](O)(c2cccc(F)c2)c2cc(C(C)(C)O)c(F)c(-c3cccc(Cl)c3Cl)n2)cc2cn(C3CC3)nc12 [Example 98]	> 6.00

SMILES	pEC50
COc1cc(C(=O)NC[C@@](O)(c2ccccc2)c2cc(C(=O)NC3CC3)c(F)c(-c3cc(Cl)c(F)cc3F)n2)cc2cn(C3CC3)nc12 [Example 194]	< 6.00
CNC(=O)c1cc([C@@](O)(CNC(=O)c2cc(OC)c3nn(C4CC4)cc3c2)c2ccccc2)nc(-c2cc(Cl)c(F)cc2F)c1F [Example 192]	< 6.00
COc1cc(C(=O)NC[C@@](O)(c2ccccc2)c2cc(C(C)(C)O)cc(-c3ccc4c(c3Cl)OC(F)(F)O4)n2)cc2cn(C3CC3)nc12 [Example 156]	> 6.00
CC(C)(O)c1cc([C@@](O)(CNC(=O)c2cc(Cl)c3nn(C4CC4)cc3c2)c2ccccc2)nc(-c2cccc(Cl)c2Cl)c1Cl [Example 141]	< 6.00
COc1cc(C(=O)NC[C@](O)(c2cc(C3(O)COC3)c(F)c(-c3cc(Cl)c(F)cc3F)n2)C2CC2)cc2cn(C3CC3)nc12 [Example 167]	< 6.00
COc1cc(C(=O)NC[C@@](O)(c2ccccc2)c2nc(-c3cc(Cl)c(F)cc3F)c(F)c(C(C)(C)O)c2F)cc2sc(C)nc12 [Example 130]	> 6.00
COc1cc(C(=O)NC[C@](O)(c2cc(C(C)(C)O)c(F)c(-c3cc(Cl)c(F)cc3F)n2)c2cccs2)cc2sc(C)nc12 [Example 115]	> 6.00
CC(C)(O)c1cc([C@@](O)(CNC(=O)c2cc(Cl)c3nn(C4CC4)cc3c2)c2cccc(F)c2)nc(-c2cc(Cl)c(F)cc2F)c1F [Example 91]	> 6.00
COc1cc(C(=O)NC[C@](O)(c2ccc(F)c(-c3cc(Cl)c(F)cc3F)n2)C2CC2)cc2cc(C)cnc12 [Example 175]	< 6.00
COc1cc(C(=O)NC[C@@](O)(c2ccccc2)c2cc(C(C)(C)O)c(Cl)c(-c3ccc4c(c3Cl)OC(F)(F)O4)n2)cc2cc(C3CC3)nn12 [Example 155]	> 6.00
COc1cc(C(=O)NC[C@@](O)(c2ccccc2)c2cc(C(C)(C)O)c(F)c(-c3ccc4c(c3Cl)OC(F)(F)O4)n2)cc2sc(C)nc12 [Example 73]	> 6.00
COc1cc(C(=O)NC[C@@](O)(c2ccccc2)c2cc(C(=O)Nc3ncco3)c(F)c(-c3cc(Cl)c(F)cc3F)n2)cc2cn(C3CC3)nc12 [Example 191]	< 6.00
COc1cc(C(=O)NC[C@](O)(c2cc(C(C)(C)F)c(F)c(-c3cc(Cl)c(F)cc3F)n2)C2CC2)cc2cc(C3CC3)nn12 [Example 178]	< 6.00
COc1cc(C(=O)NC[C@@](O)(c2ccccc2)c2cc(C(C)(C)O)c(F)c(-c3cccc(Cl)c3Cl)n2)cc2cc(C3CC3)nn12 [Example 81]	> 6.00
COc1cc(C(=O)NC[C@@](O)(c2ccccc2)c2cc(C(C)(C)O)c(Cl)c(-c3cc(Cl)c(F)cc3F)n2)cc2sc(C)nc12 [Example 131]	< 6.00
COc1cc(C(=O)NC[C@](O)(c2cc(C(C)(C)O)c(F)c(-c3cc(Cl)c(F)cc3F)n2)C2CC2)cc2cn(C(F)F)nc12 [Example 54]	> 6.00
COc1cc(C(=O)NC[C@](O)(c2cc(C(C)(C)O)c(F)c(-c3ccc(F)c(Cl)c3F)n2)C2CC2)cc2cn(C3(F)CC3)nc12 [Example 120]	> 6.00
COc1cc(C(=O)NC[C@@](O)(c2ccccc2)c2cc(N3CC[C@H](O)C3)cc(-c3cc(Cl)c(F)cc3F)n2)cc2cn(C3CC3)nc12 [Example 198]	< 6.00
COc1cc(C(=O)NC[C@@](O)(c2ccccc2)c2cc(C(C)(C)O)c(F)c(-c3ccc4c(c3Cl)OC(F)(F)O4)n2)cc2cc(C3CC3)nn12 [Example 72]	> 6.00
[2H]C([2H])([2H])C(O)(c1cc([C@@](O)(CNC(=O)c2cc(OC)n3nc(C4CC4)cc3c2)C2CC2)nc(-c2cc(Cl)c(F)cc2F)c1F)C([2H])([2H])[2H] [Example 187]	> 6.00
COc1cc(C(=O)NC[C@@](O)(c2ccccc2)c2cc(C(C)(C)O)c(Cl)c(-c3cccc(Cl)c3Cl)n2)cc2cn(C3CC3)nc12 [Example 140]	< 6.00
COc1cc(C(=O)NC[C@@](O)(c2ccccc2)c2cc(N3C(=O)CC[C@H]3C(N)=O)cc(-c3cc(Cl)c(F)cc3F)n2)cc2cn(C3CC3)nc12 [Example 196]	< 6.00
COc1cc(C(=O)NC[C@](O)(c2cc(C(C)(C)O)c(F)c(-c3ccc(F)c(Cl)c3F)n2)C2CC2)cc2cn(C(F)F)nc12 [Example 118]	> 6.00
